PubChem BioAssay (NCI)
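Following 48 hours of exposure in 96-well plates, responses at five concentrations were used to interpolate endpoints linearly. GI50 marks 50% less growth. The concentration for full growth arrest is given as TGI.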

Tests used:
Experiment in all cases: NCI tumour cell line growth inhibition, 48 h
786-0 renal = test system: 786-0 renal
A498 renal = test system: A498 renal
A549 NSCLC = test system: A549 NSCLC
ACHN renal = test system: ACHN renal
BT-549 breast = test system: BT-549 breast
CAKI-1 renal = test system: CAKI-1 renal
CCRF-CEM leukemia = test system: CCRF-CEM leukemia
COLO 205 colon = test system: COLO 205 colon
DU-145 prostate = test system: DU-145 prostate
EKVX NSCLC = test system: EKVX NSCLC
HCC-2998 colon = test system: HCC-2998 colon
HCT-116 colon = test system: HCT-116 colon
HCT-15 colon = test system: HCT-15 colon
HL-60(TB) leukemia = test system: HL-60(TB) leukemia
HOP-62 NSCLC = test system: HOP-62 NSCLC
HOP-92 NSCLC = test system: HOP-92 NSCLC
HS 578T breast = test system: HS 578T breast
HT29 colon = test system: HT29 colon
IGROV1 ovarian = test system: IGROV1 ovarian
KM12 colon = test system: KM12 colon
LOX IMVI melanoma = test system: LOX IMVI melanoma
M14 melanoma = test system: M14 melanoma
MALME-3M melanoma = test system: MALME-3M melanoma
MCF7 breast = test system: MCF7 breast
MDA-MB-231 breast = test system: MDA-MB-231 breast
MDA-MB-435 = test system: MDA-MB-435
MDA-MB-468 breast = test system: MDA-MB-468 breast
MOLT-4 leukemia = test system: MOLT-4 leukemia
NCI-H226 lung = test system: NCI-H226 lung
NCI-H23 lung = test system: NCI-H23 lung
NCI-H460 lung = test system: NCI-H460 lung
NCI-H522 lung = test system: NCI-H522 lung
NCI/ADR-RES ovarian = test system: NCI/ADR-RES ovarian
OVCAR-3 ovarian = test system: OVCAR-3 ovarian
OVCAR-4 ovarian = test system: OVCAR-4 ovarian
OVCAR-5 ovarian = test system: OVCAR-5 ovarian
OVCAR-8 ovarian = test system: OVCAR-8 ovarian
PC-3 prostate = test system: PC-3 prostate
RPMI-8226 leukemia = test system: RPMI-8226 leukemia
RXF 393 renal = test system: RXF 393 renal
SF-268 CNS = test system: SF-268 CNS
SF-295 CNS = test system: SF-295 CNS
SF-539 CNS = test system: SF-539 CNS
SK-MEL-2 melanoma = test system: SK-MEL-2 melanoma
SK-MEL-28 melanoma = test system: SK-MEL-28 melanoma
SK-MEL-5 melanoma = test system: SK-MEL-5 melanoma
SK-OV-3 ovarian = test system: SK-OV-3 ovarian
SN12C renal = test system: SN12C renal
SNB-19 CNS = test system: SNB-19 CNS
SNB-75 CNS = test system: SNB-75 CNS
SR leukemia = test system: SR leukemia
SW-620 colon = test system: SW-620 colon
T-47D breast = test system: T-47D breast
TK-10 renal = test system: TK-10 renal
U251 CNS = test system: U251 CNS
UACC-257 melanoma = test system: UACC-257 melanoma
UACC-62 melanoma = test system: UACC-62 melanoma
UO-31 renal = test system: UO-31 renal

`O=C(NN1C(=O)/C(=C/C=C/c2ccc([N+](=O)[O-])o2)SC1=S)c1ccc([N+](=O)[O-])cc1` showed a GI50 (786-0 renal) of 247 nM, a TGI (786-0 renal) of 645 nM and a GI50 (A498 renal) of 3280 nM. For the same compound, the TGI (A498 renal) was 10900 nM, the GI50 (A549 NSCLC) was 1860 nM and the TGI (A549 NSCLC) was 4090 nM. For the same compound, the GI50 (ACHN renal) was 1030 nM, the TGI (ACHN renal) was 2200 nM and the GI50 (BT-549 breast) was 189 nM. It also gave a TGI (BT-549 breast) of 489 nM, a GI50 (CAKI-1 renal) of 704 nM and a TGI (CAKI-1 renal) of 1940 nM. The GI50 (CCRF-CEM leukemia) was 262 nM, the TGI (CCRF-CEM leukemia) was 1050 nM and the GI50 (COLO 205 colon) was 301 nM. The TGI (COLO 205 colon) was 826 nM, the GI50 (DU-145 prostate) was 936 nM and the TGI (DU-145 prostate) was 2290 nM. The GI50 (EKVX NSCLC) was 639 nM, the TGI (EKVX NSCLC) was 1880 nM and the GI50 (HCC-2998 colon) was 389 nM. The TGI (HCC-2998 colon) was 1290 nM, the GI50 (HCT-116 colon) was 156 nM and the TGI (HCT-116 colon) was 332 nM. The GI50 (HCT-15 colon) was 130 nM, the TGI (HCT-15 colon) was 315 nM and the GI50 (HL-60(TB) leukemia) was 1800 nM. For the same compound, the TGI (HL-60(TB) leukemia) was 6810 nM, the GI50 (HOP-62 NSCLC) was 771 nM and the TGI (HOP-62 NSCLC) was 2130 nM. The GI50 (HOP-92 NSCLC) was 310 nM, the TGI (HOP-92 NSCLC) was 1210 nM and the GI50 (HS 578T breast) was 1750 nM. The TGI (HS 578T breast) was 5770 nM, the GI50 (HT29 colon) was 225 nM and the TGI (HT29 colon) was 513 nM. It also gave a GI50 (IGROV1 ovarian) of 601 nM, a TGI (IGROV1 ovarian) of 1610 nM and a GI50 (KM12 colon) of 925 nM. For the same compound, the TGI (KM12 colon) was 2420 nM, the GI50 (LOX IMVI melanoma) was 213 nM and the TGI (LOX IMVI melanoma) was 499 nM. The GI50 (M14 melanoma) was 189 nM, the TGI (M14 melanoma) was 396 nM and the GI50 (MALME-3M melanoma) was 181 nM. The TGI (MALME-3M melanoma) was 377 nM, the GI50 (MCF7 breast) was 363 nM and the TGI (MCF7 breast) was 1690 nM. The GI50 (MDA-MB-231 breast) was 185 nM, the TGI (MDA-MB-231 breast) was 368 nM and the GI50 (MDA-MB-435) was 243 nM. For the same compound, the TGI (MDA-MB-435) was 633 nM, the GI50 (MDA-MB-468 breast) was 1310 nM and the TGI (MDA-MB-468 breast) was 2790 nM. It also gave a GI50 (MOLT-4 leukemia) of 322 nM, a TGI (MOLT-4 leukemia) of 1940 nM and a GI50 (NCI-H226 lung) of 548 nM. The TGI (NCI-H226 lung) was 1620 nM, the GI50 (NCI-H23 lung) was 289 nM and the TGI (NCI-H23 lung) was 916 nM. For the same compound, the GI50 (NCI-H460 lung) was 341 nM, the TGI (NCI-H460 lung) was 1240 nM and the GI50 (NCI-H522 lung) was 187 nM. The TGI (NCI-H522 lung) was 376 nM, the GI50 (NCI/ADR-RES ovarian) was 765 nM and the TGI (NCI/ADR-RES ovarian) was 3110 nM. The GI50 (OVCAR-3 ovarian) was 491 nM, the TGI (OVCAR-3 ovarian) was 1750 nM and the GI50 (OVCAR-4 ovarian) was 1450 nM. For the same compound, the TGI (OVCAR-4 ovarian) was 2900 nM, the GI50 (OVCAR-5 ovarian) was 1440 nM and the TGI (OVCAR-5 ovarian) was 2750 nM. For the same compound, the GI50 (OVCAR-8 ovarian) was 266 nM, the TGI (OVCAR-8 ovarian) was 964 nM and the GI50 (PC-3 prostate) was 1230 nM. The TGI (PC-3 prostate) was 3200 nM, the GI50 (RPMI-8226 leukemia) was 344 nM and the TGI (RPMI-8226 leukemia) was 2110 nM. It also gave a GI50 (RXF 393 renal) of 521 nM, a TGI (RXF 393 renal) of 1860 nM and a GI50 (SF-268 CNS) of 1560 nM. For the same compound, the TGI (SF-268 CNS) was 4450 nM, the GI50 (SF-295 CNS) was 1700 nM and the TGI (SF-295 CNS) was 3180 nM. It also gave a GI50 (SF-539 CNS) of 263 nM, a TGI (SF-539 CNS) of 745 nM and a GI50 (SK-MEL-2 melanoma) of 239 nM. The TGI (SK-MEL-2 melanoma) was 785 nM, the GI50 (SK-MEL-28 melanoma) was 1100 nM and the TGI (SK-MEL-28 melanoma) was 2400 nM. For the same compound, the GI50 (SK-MEL-5 melanoma) was 258 nM, the TGI (SK-MEL-5 melanoma) was 760 nM and the GI50 (SK-OV-3 ovarian) was 1910 nM. It also gave a TGI (SK-OV-3 ovarian) of 3810 nM, a GI50 (SN12C renal) of 175 nM and a TGI (SN12C renal) of 390 nM. It also gave a GI50 (SNB-19 CNS) of 1460 nM, a TGI (SNB-19 CNS) of 2810 nM and a GI50 (SNB-75 CNS) of 1250 nM. The TGI (SNB-75 CNS) was 3380 nM, the GI50 (SR leukemia) was 21.3 nM and the TGI (SR leukemia) was over 100000 nM. For the same compound, the GI50 (SW-620 colon) was 188 nM, the TGI (SW-620 colon) was 405 nM and the GI50 (T-47D breast) was 1800 nM. The TGI (T-47D breast) was 4400 nM, the GI50 (TK-10 renal) was 1580 nM and the TGI (TK-10 renal) was 2970 nM. It also gave a GI50 (U251 CNS) of 381 nM, a TGI (U251 CNS) of 1660 nM and a GI50 (UACC-257 melanoma) of 1440 nM. The TGI (UACC-257 melanoma) was 3210 nM, the GI50 (UACC-62 melanoma) was 218 nM and the TGI (UACC-62 melanoma) was 607 nM. For the same compound, the GI50 (UO-31 renal) was 1080 nM and the TGI (UO-31 renal) was 2290 nM.
